Data: patent US7910741B2, “Nitrogen-containing heterocyclic derivatives and drugs containing the same as the active ingredient” (Ono Pharmaceutical Co., Ltd., priority 2003, dated 2011)
Structures can show the parent of a compound that is named as a salt.

Experiments:
human CCR5 [1] = target: T1, human CCR5 (Homo sapiens, UniProt P51681); experiment: Migration test of human CCR5 expressing cell (hCCR5-Ba/F3 cell) against RANTES; format: cell-based
T1 construct: expressed in transfected cells; host or cells: Ba/F3
Protocol: Migration test of human CCR5 expressing cell (hCCR5-Ba/F3 cell):
The isolation was carried out according to the method of the isolation of human CCR5 gene as described in the above Example 1.
Ba/F3 cells were statically cultured by using RMMI-1640 medium (Gibco BRL) containing antibiotics (Antibiotic-Antimycotic) (final concentration: penicillin G sodium (100 U/mL), streptomycin sulfate (100 μg/mL), amphotericin B (0.25 μg/mL)) (Gibco BRL), fetal bovine serum (FBS) (10%), 2-mercaptoethanol (55 μM) and mouse interleukin-3 (IL-3) (5 ng/mL) (Pepro Tech, Inc) in a carbon dioxide incubator (temperature: 37° C., CO2 concentration: 5%, humidity: 95%). […]
The human CCR5 expression level in the clone obtained by the method described in the above (1-C) was detected with FAC Sort (trade name, Becton, Dickinson) by detecting the cells with a fluorescence isothiocyanate (FITC)-labeled anti-human CCR5 antibody (BD Pharmingen) and analyzed. […]
Influence of a test compound on the migration ability of the human CCR5 expressing Ba/F3 cell against RANTES, MIP-1α or […] was examined. […] The cells on the microplate were suspended in 100 μl of a phosphate buffer (PBS), and 1/10 portion thereof was further diluted with 90 μl of PBS, moved on a white plate for fluorescence assay, and used as an assay sample for migrated cell numbers (final: 100 μl/well). […]

human CCR5 [2] = target: T1, human CCR5; experiment: Inhibition test on the binding of RANTES to CCR5 (RANTES-induced transient increase of Ca ion in CCR5/CHO cells); format: cell-based; details: inhibition of RANTES (10 nM)-induced Ca2+ transient increase; CCR5/CHO cell
Protocol: Inhibition test on the binding of RANTES to CCR5:
(1) Isolation of Human CCR5 Gene
Human placental cDNA was prepared using Marathon cDNA amplification kit (Clontech). PCR primers hCCR5Xbal-F1:
Using the human placental cDNA as the template and using Ex Taq (Takara), PCR reaction (2 minutes at 95° C.→(30 seconds at 95° C., 45 seconds at 60° C., 1 minute at 72° C.)×35 times) was carried out. The thus amplified PCR product was subjected to a 1% agarose gel electrophoresis, purified using QIAquick Gel Extraction Kit (QUIAGEN) and then digested with a restriction enzyme XbaI. The digested fragments were ligated to an expression vector pEF-BOS-bsr using DNA Ligation Kit Ver. 2 (Takara) and transformed into Escherichia coli DH5a. […]
The thus established human CCR5 stably over-expressing CHO cell (CCR5/CHO cell) was suspended in Ham's F-12 medium containing FBS (10%) and seeded at a density of […] into a 96 well plate. […] Transient increase in the intracellular Ca^2+ concentration induced by the human RANTES was measured using a Ca^2+ detector for 96 well use (Hamamatsu Photonics), and inhibition ratio (%) of the test compound was calculated by the following calculation formula. Inhibition ratio=(Ec−Ea)/Ec×100 • Ec: measured value of Ca^2+ transient increase by RANTES • Ea: measured value of Ca^2+ transient increase by RANTES when a test compound was added.

T1 sequence (P51681 whole entry): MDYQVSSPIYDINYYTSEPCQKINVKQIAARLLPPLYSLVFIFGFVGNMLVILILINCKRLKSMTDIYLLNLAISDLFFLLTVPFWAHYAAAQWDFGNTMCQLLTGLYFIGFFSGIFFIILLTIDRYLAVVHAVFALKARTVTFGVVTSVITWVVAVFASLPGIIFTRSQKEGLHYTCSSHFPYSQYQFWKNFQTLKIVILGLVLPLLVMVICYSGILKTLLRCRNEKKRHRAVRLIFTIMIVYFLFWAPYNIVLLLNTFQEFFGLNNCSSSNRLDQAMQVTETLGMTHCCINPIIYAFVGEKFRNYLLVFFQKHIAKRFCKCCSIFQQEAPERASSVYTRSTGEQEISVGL

Row | SMILES | cell migration inhibition ratio (human CCR5 [1]; concentration 10 μM) | cell migration inhibition ratio (human CCR5 [1]; concentration 30 μM) | IC50 (human CCR5 [2])
1 | CCCCN(C(=O)Nc1ccc(F)cc1F)C1CCN(Cc2ccc(Oc3ccc(NS(C)(=O)=O)cc3)cc2)CC1.Cl [Example 23(126), N-[4-(4-{[4-(butyl{[(2,4-difluorophenyl)amino]carbonyl}amino)-1-piperidinyl]methyl}phenoxy)phenyl]methanesulfonamide hydrochloride] | 42% | 77% | 
2 | CCCCN(C(=O)C1CCCCC1)C1CCN(Cc2ccc(Oc3ccc(NS(C)(=O)=O)cc3)cc2)CC1 [Example 5(2), N-butyl-N-[1-(4-{4-[(methylsulfonyl)amino]phenoxy}benzyl)piperidin-4-yl]cyclohexanecarboxamide hydrochloride] |  |  | 77 nM
